Measurements reported in the supplement of paper PMC10307832.

Compound: COC1=CC=C(C=C1)CN2C=CC3=C2C=C(C=C3)C(=O)NO
Experiment: relative viability (nuclei count vs DMSO), 5 days (fraction); higher = more cells survive
Settings: 0.08 µM
Outline: (§1)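 After an overnight hold at 37 °C, lung cancer cell lines in 1536-well plates were pinned with five library-drug doses (not always all listed), each √10 from the next, on vehicle-anchored plates. The cells stayed 5 days without fresh medium, then a one-step fix, permeabilisation and Hoechst stain preceded 4× imaging and MetaXpress nuclear counts. A plate passed only with control CV under 25% and at least one doubling. Viability is the median, over plates, of treated-well nuclei relative to vehicle-well nuclei.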

Cell Line	relative viability
201T	1.02
NCI-H2228	1.06
LOU-NH91	0.717
NCI-H1666	0.891
NCI-H650	0.903
NCI-H1703	0.699
Calu-6	0.825
NCI-H1993	0.932
HCC-44	0.916
NCI-H647	0.754
NCI-H2126	0.99
NCI-H1755	0.869
PC-3 [JPC-3]	1
NCI-H1792	0.952
NCI-H2087	0.913
HOP-62	0.865
NCI-H2170	0.973
NCI-H2347	0.911
NCI-H1355	0.814
NCI-H1915	0.888
SK-MES-1	1.07
NCI-H23	0.776
CAL-12T	1.02
HCC-366	0.791

Same assay, conditions: 0.253 µM

Cell Line	relative viability
NCI-H1793	1
201T	0.987
NCI-H2228	1.05
LOU-NH91	0.95
NCI-H1666	0.99
NCI-H650	0.834
NCI-H1703	1.07
Calu-6	1.01
NCI-H1993	0.9
HCC-44	0.923
NCI-H647	0.909
NCI-H2126	1.03
NCI-H1755	1.03
PC-3 [JPC-3]	1.03
NCI-H1792	0.883
NCI-H2087	1
HOP-62	1.01
NCI-H2170	0.994
NCI-H2347	1.06
HARA	1.02
NCI-H1355	0.996
NCI-H1915	0.992
SK-MES-1	1.02
NCI-H23	1.06
NCI-H661	0.981
CAL-12T	0.889
NCI-H1944	0.986
HCC-366	0.993
NCI-H322M	0.948

Same assay, conditions: 0.8 µM

Cell Line	relative viability
NCI-H1793	1.02
201T	1.05
NCI-H2228	0.996
LOU-NH91	1
NCI-H1666	1.09
NCI-H650	0.888
NCI-H1703	0.959
Calu-6	1.03
NCI-H1993	1.06
HCC-44	1.03
NCI-H647	1.02
NCI-H2126	1.03
NCI-H1755	0.965
PC-3 [JPC-3]	1.11
NCI-H1792	0.99
NCI-H2087	1.19
HOP-62	0.992
NCI-H2170	0.977
NCI-H2347	1.1
HARA	1.08
NCI-H1355	0.987
NCI-H1915	1.02
SK-MES-1	0.988
NCI-H23	1.09
NCI-H661	0.96
CAL-12T	1.04
NCI-H1944	0.987
HCC-366	0.973
NCI-H322M	1.06

Same assay, conditions: 2.53 µM

Cell Line	relative viability
NCI-H1793	1.03
201T	0.993
NCI-H2228	1.07
LOU-NH91	0.991
NCI-H1666	1.03
NCI-H650	0.949
NCI-H1703	0.956
Calu-6	0.998
NCI-H1993	0.969
HCC-44	1.05
NCI-H647	0.989
NCI-H2126	1.02
NCI-H1755	0.993
PC-3 [JPC-3]	1.08
NCI-H1792	0.766
NCI-H2087	0.935
HOP-62	1.03
NCI-H2170	0.98
NCI-H2347	1.17
HARA	0.89
NCI-H1355	0.995
NCI-H1915	0.982
SK-MES-1	1.03
NCI-H23	0.968
NCI-H661	0.958
CAL-12T	1.05
NCI-H1944	0.947
HCC-366	0.964
NCI-H322M	0.925

Same assay, conditions: 8 µM

Cell Line	relative viability
NCI-H1793	1.01
201T	0.942
NCI-H2228	0.851
LOU-NH91	0.944
NCI-H1666	1.03
NCI-H650	0.891
NCI-H1703	0.904
Calu-6	0.977
NCI-H1993	0.888
HCC-44	1
NCI-H647	0.869
NCI-H2126	0.942
NCI-H1755	0.973
PC-3 [JPC-3]	0.968
NCI-H1792	0.795
NCI-H2087	0.85
HOP-62	0.958
NCI-H2170	0.906
NCI-H2347	0.974
HARA	0.884
NCI-H1355	0.874
NCI-H1915	0.881
SK-MES-1	0.997
NCI-H23	0.721
NCI-H661	0.892
CAL-12T	0.891
NCI-H1944	0.955
HCC-366	1.01
NCI-H322M	0.931

Compound: C[C@]1(c2nc3c(C(N)=O)cccc3[nH]2)CCCN1 [Veliparib]
Experiment: as above
Settings: 0.02 µM
Outline: as §1

Cell Line	relative viability
NCI-H1793	0.881
